One block for each molecule: values may come before it. Bridge positions count the residues as written; N and C are the ends. Square brackets hold non-standard residues; d marks the D form. Ends that are not written are not given here. Peptide text beside a SMILES is read from it. S5 = C=CCCC[C@](C)(N)C(=O)O
How the values were obtained:
[1] = tested on: β3-THD (integrin β3-talin head domain fusion protein); test: GST pull-down, β3-THD chimera; assay type: binding; conditions: GST-fused peptide on glutathione beads, His-tagged talin protein, Western blot
Excerpt: The interaction of the TBS segment of RIAM with the talin head domain is compatible with the integrin-β:talin interaction (see, Yang et al., Nat. Commun., 2014, 5, 5880). To test this proposed synergistic interaction, a chimeric protein was constructed by fusing a integrin 03 segment to talin head domain (β3-THD) and assessed its interaction with TBS. […] The T14E mutation in TBS is expected to generate anew salt-bridge interaction with talin through the Arg358 residue, which is essential for the interaction of talin and integrin-β3 (FIG. 2, Panel D; see Barsukov et al., J. Biol. Chem., 2003, 278, 31202-09).
Plasmid construction, protein purification, and GST pull-down: Talin R7R8, talin head domain, β3-THD chimera, and GST-TBS were expressed and purified as described previously described (see, Zhang et al., Proc. Natl. Acad. Sci. U.S.A., 2020, 117, 32402-12; and Chang et al., 2014). Point mutations were constructed using a site-directed mutagenesis method. […] The proteins were resolved by SDS-PAGE and detected by Coomassie staining or Western blotting. […] The blots were visualized with the SuperSignal West Pico Chemiluminescent Substrate (Thermo Scientific) and detected using the FluorChem E imager (ProteinSimple).

CHO-A5 cells = test: Cell permeability assay (flow cytometry uptake of fluorophore-labelled peptide); assay type: in vitro ADME; conditions: CHO-A5 cells, lower doses, flow cytometry permeability index, fluorophore-labelled peptides
Method: Assessing membrane permeability: CHO-A5 cells were treated with FAM-labelled WT-TBS (1, 10, and 50 μM), or with FITC-labelled stapled-TBS (1, 10, and 50 μM), and incubated for 30 minutes at 37° C. The cells were washed twice with phosphate-buffered saline (PBS), harvested in trypsin-EDTA, and centrifuged at 2,000 rpm for 5 minutes. The cells were resuspended in PBS and quantified with an LSR flow cytometer using 30,000 cells per measurement.
A common challenge for peptidomimetic drugs that target intracellular proteins is the poor cell membrane permeability. To assess the effect of the C8 staple on cell permeability, FITC-labeled S-TBS were incubated with CHO cells at various concentration and examined S-TBS uptake by flow cytometry. […] The assay was then performed using lower doses of peptides and quantified the signals for statistical analyses. […] In contrast, TBS requires a concentration of at least 5 μM for cell uptake (FIG. 3, Panel B).
Cell permeability assay: CHO-A5 cells were plated in 6-well dishes, and then treated with fluorophore labeled TBS or S-TBS peptides at indicated concentrations for 30 minutes at 37° C. The cells were then washed twice with phosphate-buffered saline (PBS), detached by adding a mixture of trypsin and […] (“trypsin-EDTA”) and harvested by spinning at 2,000 rpm for 5 minutes. The cells were resuspended in PBS and quantified with an LSR flow cytometer (525/50 filter, 488 nm laser) using 30,000 cells per measurement.

integrin αIIbβ3 [2] = test: Integrin activation assay, wild-type talin head domain; assay type: cell-based; conditions: CHO-A5 cells expressing GFP-tagged wild-type talin head domain; TBS 100 μM, S-TBS 10 and 100 μM, 30 minutes; PAC1 flow cytometry
Method: (§1) Assessing integrin activation: CHO-A5 cells were transfected with GFP-tagged talin-head domain (residues 1-430, WT or W359A) and incubated for 24 hours at 37° C. The cells were subsequently treated with WT-TBS at 100 μM or Staple-TBS (at 10 and 100 μM) for 30 minutes at 37° C. and washed twice with PBS, harvested in trypsin-EDTA, and centrifuged at 2,000 rpm for 5 minutes. The cells were incubated in Tyrode's buffer (136.9 mM NaCl, 10 mM HEPES, 5.5 mM glucose, 11.9 mM NaHCO3, 2.7 mM KCl, 0.5 mM CaCl2), 1.5 mM MgCl2, and 0.4 mM NaH2PO4, pH 7.4) containing PAC1 antibody for 1 hour at 30° C. and then stained with Alexa 647 (goat anti-mouse IgM) for 30 minutes at RT. The cells were quantified with an LSR flow cytometer using 30,000 cells per measurement.
(§2) The effect of S-TBS on talin-induced activation of integrin αIIbβ3 was examined. CHO-A5 cells that stably express integrin αIIbβ3 were transfected with a green fluorescent protein-tagged talin head domain, treated with S-TBS or TBS, and then subjected flow cytometry analysis for integrin αIIbβ3 activity. […]
(§3) Integrin activation assays: CHO-A5 cells were transfected with talin-head domain, wild-type or W359A, and incubated for 24 hours at 37° C. […] The cells were quantified with a Beckton, Dickenson & Co. Biosciences LSR flow cytometer (660/20 filter, 640 nm laser) using 30,000 cells per measurement.

integrin αIIbβ3 [3] = test: Integrin activation assay, inactive talin head mutant THD-W359A; assay type: cell-based; conditions: CHO-A5 cells transfected with THD-W359A; TBS 100 μM, S-TBS 10 and 100 μM; PAC1 flow cytometry
Method: as §1, §2, §3

HEK-293 cells = test: Cell toxicity assay, HEK-293; assay type: cell-based; conditions: 40 μM, treated one hour then washed away, viability at 24 and 48 hours
Method: (§4) The cell toxicity of the peptides was then examined. HEK, MCF-7, and HeLa were used. Cells were treated with S-TBS 40 μm for one hour. The S-TBS was then washed away and the viability measured at 24 and 48 hours. No impact on HEK, MCF-7, and HeLa cell growth was observed.

MCF-7 cells = test: Cell toxicity assay, MCF-7; assay type: cell-based; conditions: 40 μM, treated one hour then washed away, viability at 24 and 48 hours
Method: as §4

HeLa cells = test: Cell toxicity assay, HeLa; assay type: cell-based; conditions: 40 μM, treated one hour then washed away, viability at 24 and 48 hours
Method: as §4

Talin rod R7R8 domains [4] = target: T1, Talin rod R7R8 domains (UniProt P26039 1357-1653, limits assumed); test: fluorescence polarization; Kd of S-TBS against Kd of TBS
T1 construct: domain: R7R8; also called talin R7R8; talin rod double-domain R7R8
Method: (§5) To assess the binding affinities of S-TBS with talin, the Kd of TBS and S-TBS peptides with talin rod R7R8 and talin head (residues 1-430) were measured using fluorophore-labeled peptides and recombinantly expressed, purified talin proteins by FP assays. […] This gain of affinity may be attributed to the C8 staple as it stabilizes the helical structure of TBS, and the enhanced hydrophobic interaction between S-TBS and talin rod. The enhanced binding of S-TBS to talin further validates the design strategy of using stapled peptides as a potent competitive inhibitor.
(§6) Fluorescent Polarization: Mixtures were prepared of purified talin proteins at a series concentration (R7R8: 0.2 μM to 20 μM; THD/b3-THD: 5 μM to 100 μM), or buffer only, with 20 nM FITC-labeled S-TBS (New England Peptide) in a buffer containing 20 mM HEPES, pH 7.5, 100 mM NaCl, and 2 mM DTT. After five minutes of incubation, 20 μl of the reaction mix was added to individual wells of a 384-well assay plate (Corning) and then measured fluorescence polarization at room temperature using a plate reader. A […] as emission polarization filters. FP signals were normalized against buffer-only background and then fit to a single-site (saturating) binding model using SigmaPlot (Systat Software).

[5] = target: T2, Talin head domain (residues 1-430) (UniProt P26039 1-430); test: as above
T2 construct: range 1-430; also called THD
Method: as §5, §6

Talin rod R7R8 domains [6] = target: T1, Talin rod R7R8 domains; test: fluorescence polarization; fluorophore-labelled peptide titrated with talin R7R8
Method: as §5, §6

[7] = target: T2, Talin head domain (residues 1-430); test: fluorescence polarization; fluorophore-labelled peptide titrated with talin head (residues 1-430)
Method: as §5, §6

[8] = target: T2, Talin head domain (residues 1-430); test: fluorescence polarization, as the legend of FIG. 9 Panel B prints it (Table 2 prints 116)
Method: as §5, §6

Talin rod R7R8 domains [9] = target: T1, Talin rod R7R8 domains; test: fluorescence polarization; fluorophore-labelled peptide, purified talin protein titrated
Method: as §5, §6

[10] = target: T2, Talin head domain (residues 1-430); test: as above
Method: as §5, §6

T1 sequence (P26039 1357-1653 limits assumed): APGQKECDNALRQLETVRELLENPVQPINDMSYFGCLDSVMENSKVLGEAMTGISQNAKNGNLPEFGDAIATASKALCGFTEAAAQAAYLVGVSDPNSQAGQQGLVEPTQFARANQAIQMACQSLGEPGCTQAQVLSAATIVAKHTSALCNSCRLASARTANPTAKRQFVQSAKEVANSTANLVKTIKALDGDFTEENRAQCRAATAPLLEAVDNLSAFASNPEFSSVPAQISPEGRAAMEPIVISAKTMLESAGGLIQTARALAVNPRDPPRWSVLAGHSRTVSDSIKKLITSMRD
T2 sequence (P26039 1-430 limits assumed): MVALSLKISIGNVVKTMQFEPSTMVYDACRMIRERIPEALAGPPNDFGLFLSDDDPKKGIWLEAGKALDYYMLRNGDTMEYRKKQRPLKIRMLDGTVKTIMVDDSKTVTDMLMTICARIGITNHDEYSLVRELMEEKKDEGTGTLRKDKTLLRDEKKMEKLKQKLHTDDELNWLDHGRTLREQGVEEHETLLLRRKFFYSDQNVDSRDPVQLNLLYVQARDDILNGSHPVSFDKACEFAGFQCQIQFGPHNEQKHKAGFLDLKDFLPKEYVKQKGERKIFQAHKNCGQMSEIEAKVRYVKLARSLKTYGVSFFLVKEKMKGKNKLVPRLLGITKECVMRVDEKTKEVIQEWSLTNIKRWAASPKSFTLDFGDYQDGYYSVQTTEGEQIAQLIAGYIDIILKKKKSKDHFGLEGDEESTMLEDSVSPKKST

- concentration giving significant cell uptake (CHO-A5 cells): at least 5 μM
Molecule: CC[C@H](C)[C@H](NC(=O)[C@H](CC(=O)O)NC(=O)[C@H](CCC(=O)O)NC(=O)[C@@H](N)CC(N)=O)C(=O)N[C@@H](CC(=O)O)C(=O)N[C@@H](CCC(N)=O)C(=O)N[C@@H](CCSC)C(=O)N[C@@H](Cc1ccccc1)C(=O)N[C@@H](CO)C(=O)N[C@H](C(=O)N[C@@H](CC(C)C)C(=O)N[C@@H](CC(C)C)C(=O)NCC(=O)N[C@@H](CCC(=O)O)C(=O)N[C@@H](CCSC)C(=O)N[C@@H](CC(=O)O)C(=O)N[C@@H](CC(C)C)C(=O)N[C@@H](CC(C)C)C(=O)N[C@H](C(=O)N[C@@H](CCC(N)=O)C(=O)N[C@@H](CO)C(=O)O)[C@@H](C)O)[C@@H](C)O [TBS, reference compound] (H-NEDIDQMFSTLLGEMDLLTQS-OH; N-terminus and C-terminus assumed)
- interaction with β3-THD (pull-down) [1]: much more strongly than with THD alone
- integrin αIIbβ3 activity (talin-induced activation) (integrin αIIbβ3 [2]): no inhibitory effect
- integrin αIIbβ3 activity with inactive talin head THD-W359A (integrin αIIbβ3 [3]): No inhibitory effect
- cell toxicity (viability / cell growth), HEK (HEK-293 cells): minimal cell toxicity
- cell toxicity (viability / cell growth), MCF-7 (MCF-7 cells): minimal cell toxicity
- cell toxicity (viability / cell growth), HeLa (HeLa cells): minimal cell toxicity

- fold stronger binding than TBS (Talin rod R7R8 domains [4]): 6 fold
- fold stronger binding than TBS [5]: 3.5 fold
- EC50 (read off the curve) (Talin rod R7R8 domains [6]): ~2 µM
- EC50 (read off the curve) [7]: 10 to 20 µM
B1: S-TBS, stapled talin-binding site peptide (Stp(15,19))H2N-NEDIDQMFSTLLGE(S5)DLL(S5)QS-OH (peptide)
peptide: H-NEDIDQMFSTLLGE[S5]DLL[S5]QS-OH
modifications: staple 15-19; also: FITC label in some assays, site not given here
notes: X stands for the non-natural stapling residue (S5); also called stapled TBS; stapled-TBS

- Kd [8]: 106 µM
- Kd (Talin rod R7R8 domains [9]): 17.7 µM
- Kd [10]: 116 µM
B2: TBS peptide (unstapled talin-binding site peptide of RIAM) (peptide)
peptide: NEDIDQMFSTLLGEMDLLTQS
modifications: also: fluorescein (6-FAM) label in some assays
notes: also called WT-TBS; unstapled TBS

Reference: patent publication US20240360186A1, “Treatment Of Integrin-Related Disorders With Stapled Peptides” (Institute For Cancer Research d/b/a The Research Institute …, priority 2021, published 2024)
